Source: ChEMBL document CHEMBL6134912, “Novel Piperidine Substituted Pyrazolopyrimidine Derivatives as SGK1 Inhibitors for Treating Cardiovascular Diseases” (ACS Med Chem Lett, 2025)

Biological target: T1, Serine/threonine-protein kinase Sgk1 (Homo sapiens, UniProt O00141)
T1 sequence (O00141 whole entry): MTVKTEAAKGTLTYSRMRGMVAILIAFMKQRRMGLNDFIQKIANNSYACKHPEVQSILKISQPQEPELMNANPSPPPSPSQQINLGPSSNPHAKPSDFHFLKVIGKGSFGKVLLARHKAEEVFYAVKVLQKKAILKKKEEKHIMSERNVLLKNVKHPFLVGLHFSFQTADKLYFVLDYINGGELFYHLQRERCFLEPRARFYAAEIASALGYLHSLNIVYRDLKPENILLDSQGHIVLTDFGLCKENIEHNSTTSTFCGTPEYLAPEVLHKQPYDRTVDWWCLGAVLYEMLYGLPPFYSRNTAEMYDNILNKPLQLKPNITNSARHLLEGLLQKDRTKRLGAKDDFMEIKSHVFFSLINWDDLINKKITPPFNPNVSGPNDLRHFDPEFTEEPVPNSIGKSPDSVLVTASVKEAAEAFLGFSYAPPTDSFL
Assay: Inhibition of GST-tagged human SGK1 using fluorescein labelled ATP-competitive probe by homogeneous time-resolved fluorescence (HTRF) binding assay

Row | IC50 [nM] | Compound
1 | 4 | Cc1nc(O[C@H]2CC[C@@H](N(C)C)CC2)c(C(=O)N[C@@H]2CCCN(c3nn(-c4ccc(C(N)=O)c(F)c4)c4ncnc(N)c34)C2)s1
2 | 5 | COc1cc(C(=O)N[C@@H]2CCCN(c3nn(-c4ccc(S(C)(=O)=O)cc4)c4ncnc(N)c34)C2)ccn1
3 | 3 | CCC(CC)N[C@H]1CC[C@@H](Oc2nc(C)sc2C(=O)N[C@@H]2CCCN(c3nn(-c4ccc(C(N)=O)c(F)c4)c4ncnc(N)c34)C2)CC1
4 | 5 | Cc1nc(O[C@H]2CC[C@@H](NC(C)CO)CC2)c(C(=O)N[C@@H]2CCCN(c3nn(-c4ccc(C(N)=O)c(F)c4)c4ncnc(N)c34)C2)s1 (stereo partly specified)
5 | 4 | Cc1nc(O[C@H]2CC[C@@H](NC3CCC3)CC2)c(C(=O)N[C@@H]2CCCN(c3nn(-c4ccc(C(N)=O)c(F)c4)c4ncnc(N)c34)C2)s1
6 | 5 | Cc1nc(O[C@H]2CC[C@@H](N3CCC3)CC2)c(C(=O)N[C@@H]2CCCN(c3nn(C4=CC(=O)OC4)c4ncnc(N)c34)C2)s1
